Key:
[1] = DRUGMATRIX: Glutamate, NMDA, Agonism radioligand binding (ligand: [3H] CGP-39653); assay type: cell membranes, Rattus norvegicus, Wistar, Cerebral cortex, Membrane; conditions: Not Active = under 50% inhibition at 10 µM
[2] = target: C-C chemokine receptor type 2 (Homo sapiens, UniProt P41597); assay type: cell membranes, Membrane; conditions: cho-k1; also: in other assays of this panel Not Active means under 50% inhibition at 10 µM
[3] = target: Voltage-gated inwardly rectifying potassium channel KCNH2 (Homo sapiens, UniProt Q12809); conditions: hek293; also: in other assays of this panel Not Active means under 50% inhibition at 10 µM
Sequence of Voltage-gated inwardly rectifying potassium channel KCNH2 (Q12809 whole entry): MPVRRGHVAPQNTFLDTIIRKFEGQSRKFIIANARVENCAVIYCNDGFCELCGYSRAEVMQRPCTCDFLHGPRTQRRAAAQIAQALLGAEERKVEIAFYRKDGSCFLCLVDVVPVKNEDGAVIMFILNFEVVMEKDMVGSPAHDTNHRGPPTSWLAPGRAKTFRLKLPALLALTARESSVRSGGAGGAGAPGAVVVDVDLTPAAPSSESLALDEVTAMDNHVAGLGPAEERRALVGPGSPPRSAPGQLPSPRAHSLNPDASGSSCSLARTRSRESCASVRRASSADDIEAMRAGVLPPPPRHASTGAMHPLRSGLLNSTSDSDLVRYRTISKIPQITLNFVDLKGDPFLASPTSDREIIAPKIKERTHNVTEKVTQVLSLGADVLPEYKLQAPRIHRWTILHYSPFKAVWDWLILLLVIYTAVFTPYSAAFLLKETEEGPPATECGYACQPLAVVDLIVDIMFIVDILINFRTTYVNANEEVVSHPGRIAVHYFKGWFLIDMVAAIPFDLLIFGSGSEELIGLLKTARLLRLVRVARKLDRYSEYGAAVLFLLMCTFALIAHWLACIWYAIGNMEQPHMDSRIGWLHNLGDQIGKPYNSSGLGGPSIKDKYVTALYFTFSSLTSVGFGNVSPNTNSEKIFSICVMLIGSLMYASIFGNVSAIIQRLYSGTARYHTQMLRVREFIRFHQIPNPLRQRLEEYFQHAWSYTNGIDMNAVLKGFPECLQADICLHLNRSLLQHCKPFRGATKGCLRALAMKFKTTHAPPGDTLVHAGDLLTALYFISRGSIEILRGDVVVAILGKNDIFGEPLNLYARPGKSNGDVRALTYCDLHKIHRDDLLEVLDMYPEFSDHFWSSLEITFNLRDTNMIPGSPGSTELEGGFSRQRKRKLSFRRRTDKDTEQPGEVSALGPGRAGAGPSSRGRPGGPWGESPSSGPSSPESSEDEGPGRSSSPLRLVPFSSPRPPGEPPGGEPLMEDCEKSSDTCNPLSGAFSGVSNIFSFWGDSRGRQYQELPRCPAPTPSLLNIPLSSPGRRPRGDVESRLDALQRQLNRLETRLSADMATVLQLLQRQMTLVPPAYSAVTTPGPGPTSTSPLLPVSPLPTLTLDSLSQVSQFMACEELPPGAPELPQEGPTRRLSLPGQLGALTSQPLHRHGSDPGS

[4] = DRUGMATRIX: Interleukin IL-1 radioligand binding (ligand: [125I] interleukin 1beta); assay type: cell membranes, Membrane; conditions: nih3t3; Not Active = under 50% inhibition at 10 µM
[5] = target: T1, C-X-C chemokine receptor type 2 (Homo sapiens, UniProt P25025); assay type: cell membranes, Membrane; conditions: cho-k1; also: in other assays of this panel Not Active means under 50% inhibition at 10 µM
T1 sequence (P25025 whole entry): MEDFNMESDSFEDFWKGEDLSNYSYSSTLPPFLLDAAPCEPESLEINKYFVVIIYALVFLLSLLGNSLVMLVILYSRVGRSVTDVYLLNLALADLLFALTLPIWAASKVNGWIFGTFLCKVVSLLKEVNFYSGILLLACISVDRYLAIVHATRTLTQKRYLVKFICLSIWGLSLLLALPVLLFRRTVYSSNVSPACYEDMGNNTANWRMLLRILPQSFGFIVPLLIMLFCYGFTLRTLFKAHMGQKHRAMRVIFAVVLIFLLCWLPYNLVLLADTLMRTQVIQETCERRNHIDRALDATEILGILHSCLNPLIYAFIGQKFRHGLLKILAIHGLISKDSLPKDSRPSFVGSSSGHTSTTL

Calcitonin receptor = target: T2, Calcitonin receptor (Homo sapiens, UniProt P30988); assay type: cell membranes, Membrane; conditions: t47d; also: in other assays of this panel Not Active means under 50% inhibition at 10 µM
T2 sequence (P30988 whole entry): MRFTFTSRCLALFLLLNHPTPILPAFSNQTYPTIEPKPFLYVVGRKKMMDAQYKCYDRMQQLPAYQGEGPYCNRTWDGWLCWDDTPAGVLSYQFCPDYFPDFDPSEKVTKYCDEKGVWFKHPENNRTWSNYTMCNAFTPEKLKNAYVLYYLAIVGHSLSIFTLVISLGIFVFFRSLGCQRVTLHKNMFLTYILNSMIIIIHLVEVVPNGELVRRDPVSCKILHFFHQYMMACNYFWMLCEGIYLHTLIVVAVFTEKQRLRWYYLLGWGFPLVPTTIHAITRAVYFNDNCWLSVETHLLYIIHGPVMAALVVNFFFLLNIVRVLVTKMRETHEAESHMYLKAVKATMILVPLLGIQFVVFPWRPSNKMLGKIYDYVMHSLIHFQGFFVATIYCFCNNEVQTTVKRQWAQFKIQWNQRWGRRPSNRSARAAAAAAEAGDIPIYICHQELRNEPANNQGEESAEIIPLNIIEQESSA

[6] = target: T3, Nitric oxide synthase, inducible (Mus musculus, UniProt P29477); design: species or system Escherichia coli
T3 sequence (P29477 whole entry): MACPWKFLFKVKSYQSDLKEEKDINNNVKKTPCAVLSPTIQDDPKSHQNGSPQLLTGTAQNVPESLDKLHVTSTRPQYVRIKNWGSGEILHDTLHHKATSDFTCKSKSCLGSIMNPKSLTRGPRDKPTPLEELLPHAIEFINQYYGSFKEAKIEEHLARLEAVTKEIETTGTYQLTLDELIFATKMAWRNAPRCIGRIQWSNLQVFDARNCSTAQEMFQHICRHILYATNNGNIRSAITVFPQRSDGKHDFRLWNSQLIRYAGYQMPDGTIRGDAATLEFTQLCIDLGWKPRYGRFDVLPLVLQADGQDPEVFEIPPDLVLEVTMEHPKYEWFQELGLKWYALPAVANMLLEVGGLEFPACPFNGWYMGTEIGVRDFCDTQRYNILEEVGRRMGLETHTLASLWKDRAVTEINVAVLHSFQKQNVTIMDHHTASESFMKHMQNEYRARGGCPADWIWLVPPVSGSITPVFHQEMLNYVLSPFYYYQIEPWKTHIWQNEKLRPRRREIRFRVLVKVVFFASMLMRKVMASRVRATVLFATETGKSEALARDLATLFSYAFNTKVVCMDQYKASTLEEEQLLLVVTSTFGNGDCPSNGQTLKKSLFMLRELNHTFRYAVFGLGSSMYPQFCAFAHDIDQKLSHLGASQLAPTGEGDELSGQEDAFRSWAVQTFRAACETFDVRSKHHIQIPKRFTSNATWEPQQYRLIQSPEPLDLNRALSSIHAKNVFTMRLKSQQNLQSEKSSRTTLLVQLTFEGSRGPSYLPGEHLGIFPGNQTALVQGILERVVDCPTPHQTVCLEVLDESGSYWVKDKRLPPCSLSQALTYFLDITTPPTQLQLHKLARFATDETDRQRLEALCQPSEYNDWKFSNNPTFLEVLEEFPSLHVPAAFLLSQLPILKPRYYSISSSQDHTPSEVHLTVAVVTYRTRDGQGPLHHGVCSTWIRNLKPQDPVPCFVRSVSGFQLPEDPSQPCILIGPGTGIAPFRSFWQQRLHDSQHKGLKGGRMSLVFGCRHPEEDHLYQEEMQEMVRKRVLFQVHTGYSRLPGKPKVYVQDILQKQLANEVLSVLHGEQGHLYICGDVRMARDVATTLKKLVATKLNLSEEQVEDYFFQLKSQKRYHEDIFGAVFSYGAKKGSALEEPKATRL

Melanocortin receptor 5 = Melanocortin receptor 5 (Homo sapiens, UniProt P33032); assay type: cell membranes, HEK293, Membrane; conditions: hek293; also: in other assays of this panel Not Active means under 50% inhibition at 10 µM
Sequence of Melanocortin receptor 5 (P33032 whole entry): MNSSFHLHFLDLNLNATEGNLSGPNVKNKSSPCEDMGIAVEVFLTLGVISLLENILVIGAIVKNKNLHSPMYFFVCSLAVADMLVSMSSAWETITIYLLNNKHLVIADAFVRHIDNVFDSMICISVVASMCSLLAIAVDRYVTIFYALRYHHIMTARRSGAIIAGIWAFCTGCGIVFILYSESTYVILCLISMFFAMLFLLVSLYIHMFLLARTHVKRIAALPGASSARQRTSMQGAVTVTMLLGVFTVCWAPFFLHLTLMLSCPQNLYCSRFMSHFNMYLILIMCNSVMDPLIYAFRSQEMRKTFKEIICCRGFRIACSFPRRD

Sequence of C-C chemokine receptor type 2 (P41597 whole entry): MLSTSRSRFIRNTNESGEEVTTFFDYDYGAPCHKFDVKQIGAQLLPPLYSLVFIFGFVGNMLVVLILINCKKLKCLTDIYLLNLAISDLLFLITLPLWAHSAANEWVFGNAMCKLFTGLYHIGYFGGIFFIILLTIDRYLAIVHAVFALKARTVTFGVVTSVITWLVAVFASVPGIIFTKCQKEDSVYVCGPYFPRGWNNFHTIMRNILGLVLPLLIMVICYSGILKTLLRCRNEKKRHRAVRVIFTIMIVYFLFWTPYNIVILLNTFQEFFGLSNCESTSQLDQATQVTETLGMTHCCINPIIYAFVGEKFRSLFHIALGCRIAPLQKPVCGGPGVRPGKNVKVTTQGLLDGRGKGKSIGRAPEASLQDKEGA

CC(C(=O)O)c1ccc2oc(-c3ccc(Cl)cc3)nc2c1 (stereo not drawn) [BENOXAPROFEN]
Not Active: IC50 [1] | Ki [1] | IC50 [2] | IC50 [3] | Ki [3] | IC50 [4] | Ki [4] | IC50 [5] | IC50 (Calcitonin receptor) | IC50 [6] | IC50 (Melanocortin receptor 5)

Oc1c(Cl)cc(Cl)c(Cl)c1Cc1c(O)c(Cl)cc(Cl)c1Cl [HEXACHLOROPHENE]
Not Active: IC50 [1] | Ki [1] | IC50 [2] | IC50 [3] | Ki [3] | IC50 [4] | Ki [4] | IC50 [5] | IC50 (Calcitonin receptor) | IC50 [6] | IC50 (Melanocortin receptor 5)

C#C[C@]1(OC(C)=O)CC[C@H]2[C@@H]3CCC4=C[C@@H](OC(C)=O)CC[C@@H]4[C@H]3CC[C@@]21C [ETHYNODIOL DIACETATE]
Not Active: IC50 [1] | Ki [1] | IC50 [2] | IC50 [3] | Ki [3] | IC50 [4] | Ki [4] | IC50 [5] | IC50 (Calcitonin receptor) | IC50 [6] | IC50 (Melanocortin receptor 5)

CCC(=O)O[C@]1(C(=O)CCl)[C@@H](C)C[C@H]2[C@@H]3CCC4=CC(=O)C=C[C@]4(C)[C@@]3(F)[C@@H](O)C[C@@]21C [CLOBETASOL PROPIONATE]
Not Active: IC50 [1] | Ki [1] | IC50 [2] | IC50 [3] | Ki [3] | IC50 [4] | Ki [4] | IC50 [5] | IC50 (Calcitonin receptor) | IC50 [6] | IC50 (Melanocortin receptor 5)

C[C@@H](CO)NC(=O)[C@@H]1C=C2c3cccc4[nH]cc(c34)C[C@H]2N(C)C1 [ERGONOVINE]
Not Active: IC50 [1] | Ki [1] | IC50 [2] | IC50 [3] | Ki [3] | IC50 [4] | Ki [4] | IC50 [5] | IC50 (Calcitonin receptor) | IC50 [6] | IC50 (Melanocortin receptor 5)

Nc1ccc2c3c(cccc13)C(=O)NC2=O
Not Active: IC50 [1] | Ki [1] | IC50 [2] | IC50 [3] | Ki [3] | IC50 [4] | Ki [4] | IC50 [5] | IC50 (Calcitonin receptor) | IC50 [6] | IC50 (Melanocortin receptor 5)

CC(C)=CCC/C(C)=C/CO [GERANIOL]
Not Active: IC50 [1] | Ki [1] | IC50 [2] | IC50 [3] | Ki [3] | IC50 [4] | Ki [4] | IC50 [5] | IC50 (Calcitonin receptor) | IC50 [6] | IC50 (Melanocortin receptor 5)

CCCOc1ccc(C(=O)OCCN(CC)CC)cc1N [PROPARACAINE]
Not Active: IC50 [1] | Ki [1] | IC50 [2] | IC50 [3] | Ki [3] | IC50 [4] | Ki [4] | IC50 [5] | IC50 (Calcitonin receptor) | IC50 [6] | IC50 (Melanocortin receptor 5)

O=C(O)c1cccnc1Nc1cccc(C(F)(F)F)c1 [NIFLUMIC ACID]
Not Active: IC50 [1] | Ki [1] | IC50 [2] | IC50 [3] | Ki [3] | IC50 [4] | Ki [4] | IC50 [5] | IC50 (Calcitonin receptor) | IC50 [6] | IC50 (Melanocortin receptor 5)

C#CC1(O)CC[C@H]2[C@@H]3CCC4=CC(=O)CC[C@@H]4[C@H]3CC[C@@]21CC (stereo partly drawn) [NORGESTREL]
Not Active: IC50 [1] | Ki [1] | IC50 [2] | IC50 [3] | Ki [3] | IC50 [4] | Ki [4] | IC50 [5] | IC50 (Calcitonin receptor) | IC50 [6] | IC50 (Melanocortin receptor 5)

CCCN(CCC)S(=O)(=O)c1ccc(C(=O)O)cc1 [PROBENECID]
Not Active: IC50 [1] | Ki [1] | IC50 [2] | IC50 [3] | Ki [3] | IC50 [4] | Ki [4] | IC50 [5] | IC50 (Calcitonin receptor) | IC50 [6] | IC50 (Melanocortin receptor 5)

O=C1CN=C(c2ccccc2Cl)c2cc([N+](=O)[O-])ccc2N1 [CLONAZEPAM]
Not Active: IC50 [1] | Ki [1] | IC50 [2] | IC50 [3] | Ki [3] | IC50 [4] | Ki [4] | IC50 [5] | IC50 (Calcitonin receptor) | IC50 [6] | IC50 (Melanocortin receptor 5)

CC(C(=O)O)c1cccc(Oc2ccccc2)c1 (stereo not drawn) [FENOPROFEN]
Not Active: IC50 [1] | Ki [1] | IC50 [2] | IC50 [3] | Ki [3] | IC50 [4] | Ki [4] | IC50 [5] | IC50 (Calcitonin receptor) | IC50 [6] | IC50 (Melanocortin receptor 5)

From ChEMBL document CHEMBL1909046, “DrugMatrix in vitro pharmacology data”
